Results on eight compounds are retold here after patent US20250230188A1, “METAGENOME-GUIDED BIOSYNTHESIS AND COMPOUNDS AND METHODS OF USE THEREOF” (The Rockefeller University, priority 2022, published 2025).

For orientation: MIC means the lowest concentration that inhibits growth of the organism.

The test system of assay [1] is K. pneumoniae 10031. The assay can be described thus: Syn-BNP MIC against ESKAPE pathogens: K. pneumoniae. It counts as cell-based, Klebsiella pneumoniae. The note with it: for MIC: K. pneumoniae 10031, Gram-negative. How it is done:
(§1) All syn-BNPs, as well as the parent antibiotic albicidin were assayed for antimicrobial activity against the ESKAPE pathogens (Enterococcus faecium, Staphylococcus aureus, Klebsiella pneumoniae, Acinetobacter baumannii, Pseudomonas aeruginosa, and Enterobacter species), which are a collection of bacteria most commonly associated with antibacterial resistant nosocomial infections.

The target in assay [2] is DNA gyrase (Escherichia coli, UniProt P0AES4+P0AES6). The note with it: FIG. 9. From the text: Further studies are focused on an investigation of other mutations via a clinical introduction of this class of antibiotics.
For assay [3], the system named is S. aureus SH1000. The experiment in a line: Syn-BNP MIC against ESKAPE pathogens: S. aureus. In kind it is cell-based, Staphylococcus aureus. To be noted: for MIC: S. aureus SH1000, Gram-positive. How it is done:
(§2) All syn-BNPs, as well as the parent antibiotic albicidin were assayed for antimicrobial activity against the ESKAPE pathogens (Enterococcus faecium, Staphylococcus aureus, Klebsiella pneumoniae, Acinetobacter baumannii, Pseudomonas aeruginosa, and Enterobacter species), which are a collection of bacteria most commonly associated with antibacterial resistant nosocomial infections. […]

The subject of assay [4] is A. baumannii. The experiment in a line: Syn-BNP MIC against ESKAPE pathogens: A. baumannii. To be noted: for MIC: Gram-negative. In kind it is cell-based, Acinetobacter baumannii. On the procedure: as §1
In assay [5] the test system is E. coli-BL21 (pET28c). It counts as cell-based, Escherichia coli. To be noted: empty vector. From the text:
(§3) As circumventing common antibiotic resistance mechanisms was likely to play a key role in the natural selection of antibiotic congeners, the present studies investigated whether some of the congeners evolved to evade AlbD-mediated cleavage. To determine the susceptibility of the herein described BGC-inspired analogs to AlbD encoded resistance, the MIC of each syn-BNP against E. coli engineered to express AlbD was compared to that of E. coli containing an empty expression vector.

Assay [6] relates to E. coli-BL21 (pET28c-AlbD). In kind it is cell-based, Escherichia coli. The note with it: for Fold increase in MIC: AlbD expressing strain versus empty vector strain; for susceptibility to AlbD encoded resistance: E. coli expressing AlbD versus empty vector; for MIC: E. coli-BL21 (pET28c-AlbD).
Source text: as §3

Assay [7] relates to E. faecium com15. The experiment in a line: Syn-BNP MIC against ESKAPE pathogens: E. faecium. It counts as cell-based, Enterococcus faecium. To be noted: for MIC: E. faecium com15, Gram-positive. On the procedure:
as §2

Assay [8] has as its system E. cloacae 13047. The experiment in a line: Syn-BNP MIC against ESKAPE pathogens: E. cloacae. In kind it is cell-based, Enterobacter cloacae. The note with it: E. cloacae 13047, Gram-negative. On the procedure: as §1
For assay [9], the system named is P. aeruginosa. The assay can be described thus: Syn-BNP MIC against ESKAPE pathogens: P. aeruginosa. In kind it is cell-based, Pseudomonas aeruginosa. To be noted: Gram-negative. How it is done:
as §1

For assay [10], the system named is E. coli 25922. The assay can be described thus: Syn-BNP MIC against E. coli. It counts as cell-based, Escherichia coli. The note with it: E. coli 25922, Gram-negative.

≈ marks a conversion by molar mass, not a printed value. Entries after “also recorded” stand apart in the source; their conditions may differ. Where two headings read alike, the source gives them in different places.

Chain of DNA gyrase (P0AES4 whole entry, one chain of several): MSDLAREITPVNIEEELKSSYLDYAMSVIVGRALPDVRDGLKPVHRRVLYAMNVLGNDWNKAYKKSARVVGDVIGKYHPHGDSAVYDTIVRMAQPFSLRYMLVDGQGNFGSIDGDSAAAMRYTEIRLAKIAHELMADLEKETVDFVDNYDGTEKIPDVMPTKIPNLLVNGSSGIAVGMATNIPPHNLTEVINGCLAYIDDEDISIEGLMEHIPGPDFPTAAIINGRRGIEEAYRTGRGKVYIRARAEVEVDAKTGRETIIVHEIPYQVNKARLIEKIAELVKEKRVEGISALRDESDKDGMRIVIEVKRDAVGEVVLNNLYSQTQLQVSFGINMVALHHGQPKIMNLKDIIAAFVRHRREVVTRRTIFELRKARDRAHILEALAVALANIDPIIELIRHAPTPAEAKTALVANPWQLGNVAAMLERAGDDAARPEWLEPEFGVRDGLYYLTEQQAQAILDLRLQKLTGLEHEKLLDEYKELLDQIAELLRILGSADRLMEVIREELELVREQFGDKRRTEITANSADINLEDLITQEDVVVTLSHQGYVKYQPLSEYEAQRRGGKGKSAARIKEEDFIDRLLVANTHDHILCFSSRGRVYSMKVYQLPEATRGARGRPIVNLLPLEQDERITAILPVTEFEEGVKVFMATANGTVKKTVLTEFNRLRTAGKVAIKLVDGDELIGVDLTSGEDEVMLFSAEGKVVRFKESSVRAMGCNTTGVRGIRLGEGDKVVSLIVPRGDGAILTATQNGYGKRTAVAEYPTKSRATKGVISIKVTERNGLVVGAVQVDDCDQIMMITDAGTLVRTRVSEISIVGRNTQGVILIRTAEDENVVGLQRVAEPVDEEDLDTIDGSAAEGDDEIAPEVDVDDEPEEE

For the compound `COc1c(NC(=O)c2ccc(NC(=O)[C@H](CC#N)NC(=O)c3ccc(NC(=O)/C(C)=C/c4ccc(O)cc4)cc3)c(OC)c2O)ccc(C(=O)Nc2ccc(C(=O)O)cc2)c1O` [PABA34], the MIC in assay [1] is >8 µg/mL; in assay [3] it was >8 µg/mL; in [4] it was 2 µg/mL (≈ 2.37 µM); in assay [5], 0.0075 µg/mL (≈ 0.0089 µM); in assay [6], 0.03 µg/mL (≈ 0.0356 µM); in [7], >8 µg/mL. The MIC in [8] and in assay [9] was 2 µg/mL (≈ 2.37 µM) throughout. Also, the “affinity for DNA gyrase” value in assay [2] is “retained a high affinity for DNA gyrase”. Also, in assay [6], the “Fold increase in MIC” value is recorded as 4 fold. Moreover, in assay [6], the “susceptibility to AlbD encoded resistance” value was “resistant to proteolytic cleavage by AlbD; also recorded: not susceptible to AlbD encoded resistance”.

For `COc1c(NC(=O)/C(C)=C/c2ccc(O)cc2)ccc(C(=O)N[C@@H](CC#N)C(=O)Nc2ccc(C(=O)Nc3ccc(C(=O)Nc4ccc(C(=O)O)cc4)c(O)c3OC)c(O)c2OC)c1O` [PABA95-2], the MIC in assay [5] came out at 0.06 µg/mL (≈ 0.0675 µM). Moreover, in [6], the “Fold increase in MIC” value is 8 fold, the “susceptibility to AlbD encoded resistance” value was “not susceptible to AlbD encoded resistance” and the MIC stood at 0.5 µg/mL (≈ 0.563 µM).

As to `COc1c(NC(=O)/C(C)=C/c2ccc(O)cc2)ccc(C(=O)N[C@@H](CC#N)C(=O)Nc2ccc(C(=O)Nc3ccc(C(=O)Nc4ccc(C(=O)O)cc4)c(O)c3OC)cc2)c1O` [PABA95], the minimal inhibitory concentration (MIC) is 0.25 µg/mL (≈ 0.297 µM) in [10]; >8 µg/mL in assay [1]; 4 µg/mL (≈ 4.75 µM) in [3]; 0.5 µg/mL (≈ 0.593 µM) in assay [4]; 0.015 µg/mL (≈ 0.0178 µM) in assay [5]; 2 µg/mL (≈ 2.37 µM) in assay [6]. Besides, the minimal inhibitory concentration (MIC) in assay [7], in assay [8] and in assay [9] was 8 µg/mL (≈ 9.49 µM) throughout. Also, the “Fold increase in MIC” value in [6] stood at 133 fold.

Consider `CO[C@@H](C(N)=O)[C@H](NC(=O)c1ccc(NC(=O)[C@@H](N)Cc2ccc(O)cc2)cc1)C(=O)Nc1ccc(C(=O)Nc2ccc(C(=O)Nc3ccc(C(=O)O)cc3)c(O)c2OC(C)C)cc1` [PABA57], for which the minimum inhibitory concentration (MIC) in assay [10] is 2 µg/mL (≈ 2.28 µM); in assay [1] it was 1 µg/mL (≈ 1.14 µM); in assay [3], >8 µg/mL; in assay [4] it was >8 µg/mL; in [5], 0.5 µg/mL (≈ 0.571 µM); in [6] it was > 64 µg/mL. The MIC in [7], in assay [8] and in assay [9] was >8 µg/mL each time. The “Fold increase in MIC” value in assay [6] was >128 fold.

For the compound `CO[C@@H](C(N)=O)[C@H](NC(=O)c1ccc(NC(=O)[C@@H](N)Cc2ccc(O)cc2)cc1)C(=O)Nc1ccc(C(=O)Nc2ccc(C(=O)Nc3ccc(C(=O)O)c(O)c3OC(C)C)c(O)c2OC(C)C)cc1` [PABA70], the minimum inhibitory concentration (MIC) is 2 µg/mL (≈ 2.11 µM) in assay [10]; 1 µg/mL (≈ 1.05 µM) in assay [1]; 1 µg/mL (≈ 1.05 µM) in assay [3]; 4 µg/mL (≈ 4.21 µM) in assay [4]; 0.5 µg/mL (≈ 0.526 µM) in assay [5]; > 64 µg/mL in assay [6]. In addition, the MIC is 1 µg/mL (≈ 1.05 µM) in assay [7], >8 µg/mL in [8] and >8 µg/mL in assay [9]. The “Fold increase in MIC” value in [6] is recorded as >128 fold.

For `O=C(O)c1cn(C2CC2)c2cc(N3CCNCC3)c(F)cc2c1=O` [Ciprofloxacin, reference compound], the MIC in assay [10] (Escherichia coli, read-out: MIC) was determined as 0.0075 µg/mL (≈ 0.0226 µM); in assay [3] (Staphylococcus aureus, read-out: MIC), 0.5 µg/mL (≈ 1.51 µM); in [7] (Enterococcus faecium, read-out: MIC), 0.5 µg/mL (≈ 1.51 µM).

For the compound `COc1c(NC(=O)c2ccc(NC(=O)c3ccc(NC(=O)[C@H](CC#N)NC(=O)c4ccc(NC(=O)/C(C)=C/c5ccc(O)cc5)cc4)cc3)c(OC)c2O)ccc(C(=O)O)c1O` [Albicidin, reference compound], the MIC in assay [10] is 0.015 µg/mL (≈ 0.0178 µM); in [1], >8 µg/mL; in assay [3], 0.5 µg/mL (≈ 0.593 µM); in assay [4] it was 0.125 µg/mL (≈ 0.148 µM); in assay [5] it was 0.0019 µg/mL (≈ 0.00225 µM); in [6], 0.25 µg/mL (≈ 0.297 µM). Moreover, the MIC is 2 µg/mL (≈ 2.37 µM) in assay [7], 8 µg/mL (≈ 9.49 µM) in [8] and 1 µg/mL (≈ 1.19 µM) in assay [9]. Further, in assay [6], the “Fold increase in MIC” value was found to be 131 fold.

In the case of `CO[C@@H](C(N)=O)[C@H](NC(=O)c1ccc(NC(=O)[C@@H](N)Cc2ccccc2)cc1)C(=O)Nc1ccc(C(=O)Nc2ccc(C(=O)Nc3ccc(C(=O)O)c(O)c3OC(C)C)c(O)c2OC(C)C)cc1` [PABA48], the minimal inhibitory concentration (MIC) in assay [10] is 0.125 µg/mL (≈ 0.134 µM); in [1], 0.125 µg/mL (≈ 0.134 µM); in assay [3] it was 0.25 µg/mL (≈ 0.268 µM); in [4], 0.125 µg/mL (≈ 0.134 µM); in assay [5], 0.06 µg/mL (≈ 0.0642 µM); in assay [6] it was > 8 µg/mL. In addition, the MIC in assay [7] was 0.125 µg/mL (≈ 0.134 µM); in assay [8], >8 µg/mL; in [9], >8 µg/mL. The “fold more potent than albicidin” value was > 64 fold in [1] (K. pneumoniae), 2 fold in assay [3] (S. aureus) and 16 fold in [7] (E. faecium). Also, the “MIC compared with albicidin” value in [4] is given as “same MIC as albicidin”. For the same compound, the “Fold increase in MIC” value in assay [6] is >133 fold.
